Source: patent publication US8815880B2, “Crystal of tricyclic pyrazolopyrimidine derivative” (Daiichi Sankyo Company, Limited, priority 2010, dated 2014)

What was measured:
[1] = system: human lung cancer cell line NCI-H460; experiment: Cell growth inhibition assay (MTT), NCI-H460; assay type: cell-based; details: NCI-H460 cells, 72 hours, read-out: GI50 value (50% growth inhibitory concentration)
Description: (§1) A cell growth inhibition assay was performed using two types of cells (human breast cancer cell line SK-BR-3 and human lung cancer cell line NCI-H460).
(§2) Cells of each type were suspended in a medium and seeded into a 96-well multi-well plate at 2000 cells/150 μL/well in the case of SK-BR-3 and at 500 cells/150 μL/well in the case of NCI-H460. Compound (1) was dissolved in DMSO, and this was diluted with medium to prepare a sample solution (DMSO concentration: 0.5% or less). On the day following the seeding, 50 μL of DMSO-containing medium to which the test compound was not added (hereinafter called DMSO diluted solution; DMSO concentration: 0.5% or less) or 50 μL of the sample solution was further added to the cells. An MTT assay was performed immediately after and 72 hours after adding the sample solution or the DMSO diluted solution to the cells. The MTT assay was performed as follows.
(§3) 5 mg/mL of an MTT (3-(4,5-dimethylthiazol-2-yl)-2,5-diphenyltetrazolium bromide) solution was added at 20 μL per well. Thereafter, the plate was incubated at 37° C. in 5% CO2 for four hours. The plate was centrifuged at 1200 rpm for five minutes, and then the culture supernatant was removed by suction using a dispenser. DMSO was added at 150 μL per well, and the generated formazan was dissolved. […] The absorbance of each well was measured using a plate reader at an OD of 540 nm with a reference of 660 nm. […]

[2] = system: human breast cancer cell line SK-BR-3; experiment: Cell growth inhibition assay (MTT), SK-BR-3; assay type: cell-based; details: SK-BR-3 cells, 72 hours, read-out: GI50 value (50% growth inhibitory concentration)
Description: as §1, §2, §3

[3] = Purity test and stability test (accelerated test, HPLC related substances); assay type: physicochemical; details: monohydrochloride
Description: Purity Test and Stability Test
• Condition 1: 40° C., humidity: 75% • Condition 2: 60° C. (without humidity control)
Samples under the aforementioned accelerated test conditions were measured by high performance liquid chromatography as described below.
An analyte for the accelerated test was dissolved in the sample-dissolved solution to prepare an approximately 0.5 g/L solution.
• Column: YMC-Pack Pro C18RS, 3.0 mm ID×150 mm, particle diameter: 3 μm • Column temperature: approximately 40° C. • Gradient conditions:
45 to 55 minutes, mobile phase A: 0/mobile phase B: 100 • Flow rate: 0.7 ml/min • Measurement range: 0 to 55 minutes • Detection wavelength: 240 nm • Amount of sample solution injected: 5 μl <Calculation> • 1) The sample solution was injected into the column, so as to obtain the peak area (A) of each related substance and the peak area (T) of compound (1). • 2) The sample-dissolved solution was injected into the column, so as to obtain the peak area (B) of each blank. • 3) The amount [%] of each related substance was calculated using the formula: The amount [%] of each related substance=100×(A−B)÷T <Measurement Results>

[4] = Accelerated condition 1: 40° C., humidity 75%, 2 weeks
[5] = Accelerated condition 1: 40° C., humidity 75%, 4 weeks
[6] = Accelerated condition 2: 60° C. (without humidity control), 2 weeks
[7] = Accelerated condition 2: 60° C. (without humidity control), 4 weeks
[8] = Purity test (Initial), before accelerated test

Row | GI50 [1] [nM] | GI50 [2] [nM] | Impurity (rrt 0.43) amount [3, 4] [%] | Impurity: Total of unspecified [3, 4] [%] | Impurity (rrt 0.43) amount [3, 5] [%] | Impurity: Total of unspecified [3, 5] [%] | Impurity (rrt 0.43) amount [3, 6] [%] | Impurity: Total of unspecified [3, 6] [%] | Impurity (rrt 0.43) amount [3, 7] [%] | Impurity: Total of unspecified [3, 7] [%] | Impurity (rrt 0.43) amount [3, 8] [%] | Impurity: Total of unspecified [3, 8] [%] | SMILES
1 | 26 | 13 |  |  |  |  |  |  |  |  |  |  | CNC(=O)CC1=Cc2nn(Cc3ncc(C)c(OC)c3Cl)c3nc(N)nc(c23)SC1 [Compound (1), 2-{4-amino-2-[(3-chloro-4-methoxy-5-methylpyridin-2-yl)methyl]-2,7-dihydro-6-thia-1,2,3,5-tetraazabenzo[cd]azulen-8-yl}-N-methylacetamide]
2 |  |  | 0.94 | 1.83 | 1.04 | 2.08 | 1.09 | 2.31 | 1.21 | 2.42 | 0.75 | 1.64 | CNC(=O)CC1=Cc2nn(Cc3ncc(C)c(OC)c3Cl)c3nc(N)nc(c23)SC1.Cl [Example 4, 2-{4-Amino-2-[(3-chloro-4-methoxy-5-methylpyridin-2-yl)methyl]-2,7-dihydro-6-thia-1,2,3,5-tetraazabenzo[cd]azulen-8-yl}-N-methylacetamide monohydrochloride]
3 |  |  | 0.30 | 1.08 | 0.33 | 1.09 | 0.32 | 1.20 | 0.33 | 1.20 | 0.27 | 1.00 | CNC(=O)CC1=Cc2nn(Cc3ncc(C)c(OC)c3Cl)c3nc(N)nc(c23)SC1.Cl [Example 12, 2-{4-Amino-2-[(3-chloro-4-methoxy-5-methylpyridin-2-yl)methyl]-2,7-dihydro-6-thia-1,2,3,5-tetraazabenzo[cd]azulen-8-yl}-N-methylacetamide monohydrochloride]
4 |  |  | 0.41 | 1.14 | 0.44 | 1.12 | 0.44 | 1.25 | 0.45 | 1.18 | 0.37 | 1.07 | CNC(=O)CC1=Cc2nn(Cc3ncc(C)c(OC)c3Cl)c3nc(N)nc(c23)SC1.Cl [Example 28, 2-{4-Amino-2-[(3-chloro-4-methoxy-5-methylpyridin-2-yl)methyl]-2,7-dihydro-6-thia-1,2,3,5-tetraazabenzo[cd]azulen-8-yl}-N-methylacetamide monohydrochloride]
